Source: patent publication US20120270908A1, “SUBSTITUTED 3 -HYDROZYPYRIDINES AND PHARMACEUTICAL COMPOSITIONS THEREOF” (priority 2007, published 2012)

How the values were obtained:
[1] = tested on: streptozotocin-induced male albino Wistar rats; test: Streptozotocin-induced decompensated insulin resistance in rats: fasting serum glucose, plasma insulin, plasma triglycerides; assay type: in vivo; details: mean±SEM (n=10); for Glucose: fasting serum; for Insulin / Triglycerides: plasma
Protocol: The rats with glucose levels more than 14.0 mmol/1 were used in the experiment one week after the streptozotocin injection.
Streptozotocin-induced rats were assigned to three groups: a control rats (n=10) and experimental rats (n=20). Control rats received daily i.p. injections of saline for 7 days. Experimental rats received daily i.p. injections of 10 mg/kg 2-Ethyl-4,6-dimethyl-3-hydroxypyridine, succinic acid salt (1:1); or 2-Ethyl-4,5,6-trimethyl-3-hydroxypyridine, succinic acid salt (1:1) for 7 days. Biochemical parameters were determined just before start of the treatment and on 14 day from the start of the treatment.

[2] = target: T1, insulin receptor (Homo sapiens, UniProt P06213); test: Activation of insulin receptor in HepG2 cells: phosphorylation of tyrosine residues 1162/1163, PhosphoDetect insulin receptor ELISA kit; assay type: cell-based; details: 10 min, PBS with 5 mM glucose, percentage of the response to 100 nM insulin, mean±SEM (n=8)
T1 construct: endogenous in cells; host or cells: HepG2 (human hepatoma)
T1 sequence (P06213 28-758 limits assumed): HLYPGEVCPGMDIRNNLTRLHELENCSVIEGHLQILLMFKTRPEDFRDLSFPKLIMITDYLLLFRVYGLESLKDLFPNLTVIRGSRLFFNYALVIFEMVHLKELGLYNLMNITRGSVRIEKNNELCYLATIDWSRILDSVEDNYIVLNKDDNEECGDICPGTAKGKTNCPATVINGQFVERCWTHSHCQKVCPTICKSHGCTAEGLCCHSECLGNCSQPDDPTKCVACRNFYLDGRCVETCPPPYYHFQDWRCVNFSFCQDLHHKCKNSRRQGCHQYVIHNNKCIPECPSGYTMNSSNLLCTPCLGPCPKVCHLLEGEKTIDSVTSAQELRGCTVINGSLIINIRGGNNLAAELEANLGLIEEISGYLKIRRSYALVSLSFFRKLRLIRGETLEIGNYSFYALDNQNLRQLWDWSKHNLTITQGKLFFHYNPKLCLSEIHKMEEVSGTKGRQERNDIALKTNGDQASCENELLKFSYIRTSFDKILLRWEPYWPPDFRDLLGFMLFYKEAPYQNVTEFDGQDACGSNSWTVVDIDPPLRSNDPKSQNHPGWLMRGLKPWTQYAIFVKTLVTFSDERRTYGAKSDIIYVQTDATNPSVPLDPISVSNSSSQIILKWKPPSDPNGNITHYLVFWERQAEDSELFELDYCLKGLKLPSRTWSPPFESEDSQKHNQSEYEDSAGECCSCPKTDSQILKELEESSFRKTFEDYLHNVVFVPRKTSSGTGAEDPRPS
T1 sequence (P06213 763-1382 limits assumed): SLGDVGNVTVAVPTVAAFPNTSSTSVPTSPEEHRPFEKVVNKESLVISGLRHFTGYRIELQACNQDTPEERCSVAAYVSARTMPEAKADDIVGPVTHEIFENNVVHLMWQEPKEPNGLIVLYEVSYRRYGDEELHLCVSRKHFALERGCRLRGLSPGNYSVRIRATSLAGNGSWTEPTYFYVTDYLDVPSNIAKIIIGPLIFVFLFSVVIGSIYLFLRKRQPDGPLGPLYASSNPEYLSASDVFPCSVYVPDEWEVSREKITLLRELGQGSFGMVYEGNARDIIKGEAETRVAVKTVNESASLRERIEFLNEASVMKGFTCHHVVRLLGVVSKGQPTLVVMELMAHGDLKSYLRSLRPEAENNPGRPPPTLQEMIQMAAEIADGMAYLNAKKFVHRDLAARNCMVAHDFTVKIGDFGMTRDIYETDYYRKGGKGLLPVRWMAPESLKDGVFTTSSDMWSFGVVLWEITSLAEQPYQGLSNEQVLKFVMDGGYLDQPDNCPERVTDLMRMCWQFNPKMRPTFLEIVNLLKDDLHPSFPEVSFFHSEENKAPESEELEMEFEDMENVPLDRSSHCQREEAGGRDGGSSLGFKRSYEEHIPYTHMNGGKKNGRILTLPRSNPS
Text: It is generally recognized that the phosphorylation increase activity of receptor to about 200-fold as compared to unphosphorylated one.

[3] = 14 Day from start, 10 mg/kg i.p. daily for 7 days
[4] = before treatment (baseline of the group)

Compound	Glucose [1, 3] [mmol/L]	Glucose [1, 4] [mmol/L]	Insulin [1, 3] [ng/mL]	Triglycerides [1, 3] [mmol/L]	Insulin [1, 4] [ng/mL]	Triglycerides [1, 4] [mmol/L]	Insulin receptor phosphorylation, % ([2]; compound 50 μM alone) [%]	Insulin receptor phosphorylation, % ([2]; insulin 5 nM + compound 50 μM) [%]
CCc1nc(C)c(C)c(C)c1O.O=C(O)CCC(=O)O [2-Ethyl-4,5,6-trimethyl-3-hydroxypyridine, succinic acid salt (1:1)]	7.3 ± 1.1	16.0 ± 2.6	2.3 ± 0.5	1.6 ± 0.3	11.4 ± 2.0	3.1 ± 0.2	13 ± 2	62 ± 8
CCc1nc(C)cc(C)c1O.O=C(O)CCC(=O)O [2-Ethyl-4,6-dimethyl-3-hydroxypyridine, succinic acid salt (1:1)]	8.5 ± 1.3	15.9 ± 2.1	2.9 ± 0.4	1.8 ± 0.4	11.2 ± 1.7	2.9 ± 0.4	14 ± 4	56 ± 7
